Where two headings read alike, the source gives them in different places.
Tests used:
[1] = test system: SN40R2 cells; assay: Protocol B: SN40R2 CellTiter-Glo luminescent cell viability assay; settings: for inhibition at 10 µM: read-out: SN40R2 % inhibition at 10; for IC50: read-out: SN40R2 IC50 (μM) (Protocol B)
[2] = test system: SJSA-1 cells; assay: Protocol B: SJSA-1 CellTiter-Glo luminescent cell viability assay
Protocol: Protocol B: SJSA-1 and SN40R2 Assays
The CellTiter-Glo® Luminescent Cell Viability Assay is a homogeneous method to determine the number of viable cells in culture based on quantitation of the ATP present, which signals the presence of metabolically active cells. […] 100 μl of CTG reagent (Promega #G7573) was added to all wells and luminescence was measured on the topcount. The EC50 values were determined from a sigmoidal 4 parameter curve fit using XLfit in conjunction with Activity Base (IDBS; Guildford, Surrey, UK).

[3] = Homo sapiens, SJSA-1, read-out: SJSA1 IC50 (μM), Protocol B, SJSA-1
[4] = Homo sapiens, SJSA-1, read-out: SJSA1 IC50 (μM) (Protocol B), SJSA-1, Protocol B

With CCC(O)(c1cc(F)c2c(c1)C(=O)N(Cc1ncc(C#N)cn1)[C@@]2(OC[C@@H](C)O)c1ccc(Cl)cc1)[C@H]1CC[C@H](O)CC1 (stereo partly drawn) [Example 512, 2-{[(1R)-1-(4-chlorophenyl)-7-fluoro-5-{1-hydroxy-1-[trans-4-hydroxycyclohexyl]propyl}-1-[(2R)-2-hydroxypropoxy]-3-oxo-2,3-dihydro-1H-isoindol-2-yl]methyl}pyrimidine-5-carbonitrile] as the compound, how does the inhibition at 10 µM [1] read?
The inhibition at 10 µM was 5%.

And the IC50 [2, 3]?
The IC50 was 0.025 µM.

What does the source list for Cn1cc(C(C)(O)c2cc(F)c3c(c2)C(=O)N(Cc2ccc(Cl)cn2)[C@@]3(OCC2(CO)CC2)c2ccc(Cl)cc2)cn1 (stereo partly drawn) [Example 346, (3R)-3-(4-chlorophenyl)-2-[(5-chloropyridin-2-yl)methyl]-4-fluoro-6-[1-hydroxy-1-(1-methyl-1H-pyrazol-4-yl)ethyl]-3-{[1-(hydroxymethyl)cyclopropyl]methoxy}-2,3-dihydro-1H-isoindol-1-one]?
IC50 [1]: 12 µM; IC50 [2, 4]: 0.012 µM

How did the inhibition at 10 µM [1] turn out when CCC(O)(c1cc(F)c2c(c1)C(=O)N(Cc1ncc(Cl)cn1)[C@@]2(O[C@H]1C[C@@H](O)C1)c1ccc(Cl)cc1)c1cn(C)cn1 (stereo partly drawn) [Example 464, (3R)-3-(4-chlorophenyl)-2-[(5-chloropyrimidin-2-yl)methyl]-4-fluoro-6-[1-hydroxy-1-(1-methyl-1H-imidazol-4-yl)propyl]-3-[cis-3-hydroxycyclobutoxy]-2,3-dihydro-1H-isoindol-1-one] was run?
The inhibition at 10 µM was 46%.

What about the IC50 [2, 3] of the same compound?
Its IC50 is 0.18 µM.

What does the source list for CO[C@]1(c2ccc(Cl)cc2)c2c(F)cc(C(C)(O)c3ncc[nH]3)cc2C(=O)N1Cc1ccc(Cl)cn1 (single isomer, unassigned) [Example 163]?
IC50 [1]: 13 µM; IC50 [2, 4]: 3.1 µM

For [2H]C([2H])(O)C1(C([2H])([2H])O[C@]2(c3ccc(Cl)cc3)c3c(F)cc(C(C)(C)C4(F)CCOCC4)cc3C(=O)N2Cc2ncc(Cl)cn2)CC1 [Example 447, (3R)-3-(4-Chlorophenyl)-2-[(5-chloropyrimidin-2-yl)methyl]-4-fluoro-6-[1-(4-fluorooxan-4-yl)-1-hydroxyethyl]-3-({1-[hydroxy(^2H2)methyl]cyclopropyl}(^2H2)methoxy)-2,3-dihydro-1H-isoindol-1-one], which inhibition at 10 µM [1] is on record?
Its inhibition at 10 µM is 10%.

And the IC50 [2, 3]?
Its IC50 is 0.011 µM.

Which IC50 [1] does the source give for CO[C@]1(c2ccc(Cl)cc2)c2c(F)cc(C(C)(O)C3CN(C)C3)cc2C(=O)N1Cc1ccc(Cl)cn1 (stereo partly drawn) [Example 307, (3R)-3-(4-chlorophenyl)-2-[(5-chloropyridin-2-yl)methyl]-4-fluoro-6-[1-hydroxy-1-(1-methylazetidin-3-yl)ethyl]-3-methoxy-2,3-dihydro-1H-isoindol-1-one] here?
The IC50 was 11 µM.

What about the IC50 [2, 4] of the same compound?
The IC50 was 1.9 µM.

What does the source list for CCC(O)(c1cc(F)c2c(c1)C(=O)N(Cc1ccc(C#N)cn1)[C@@]2(OCC1(F)COC1)c1ccc(Cl)cc1)c1cn(C)cn1 (stereo partly drawn) [Example 435, 6-{[(1R)-1-(4-chlorophenyl)-7-fluoro-1-[(3-fluorooxetan-3-yl)methoxy]-5-[1-hydroxy-1-(1-methyl-1H-imidazol-4-yl)propyl]-3-oxo-2,3-dihydro-1H-isoindol-2-yl]methyl}pyridine-3-carbonitrile]?
inhibition at 10 µM [1]: 0%; IC50 [2, 3]: 0.015 µM

With CO[C@]1(c2ccc(Cl)cc2)c2c(F)cc(C(C)(O)c3nccs3)cc2C(=O)N1Cc1ccc(Cl)cn1 (single isomer, unassigned) [Example 165] as the compound, how does the IC50 [1] read?
Its IC50 is 13 µM.

And the IC50 ([2]; read-out: SJSA1 IC50 (μM) (Protocol B), SJSA-1, Protocol B)?
Its IC50 is 1.4 µM.

Which results are given for CCC(O)(c1cc(F)c2c(c1)C(=O)N(Cc1ccc(C#N)cn1)[C@@]2(OCCO)c1ccc(Cl)cc1)c1cscn1 (single isomer, unassigned) [Example 333]?
inhibition at 10 µM [1]: 5%; IC50 [2, 3]: 0.22 µM

How did the inhibition at 10 µM [1] turn out when CC(O)(c1cc(F)c2c(c1)C(=O)N(Cc1ncc(Cl)cn1)[C@@]2(O[C@H]1CCOC1)c1ccc(Cl)cc1)C1(F)CCOCC1 (stereo partly drawn) [Example 493, (3R)-3-(4-chlorophenyl)-2-[(5-chloropyrimidin-2-yl)methyl]-4-fluoro-6-[1-(4-fluorooxan-4-yl)-1-hydroxyethyl]-3-[(3S)-oxolan-3-yloxy]-2,3-dihydro-1H-isoindol-1-one] was run?
Its inhibition at 10 µM is 11%.

With CC[C@@](O)(c1cc(F)c2c(c1)C(=O)N(Cc1ccc(C)nc1C(=O)O)[C@@]2(OC)c1ccc(Cl)cc1)C1(F)CCOCC1 [Example 515, 3-{[(1R)-1-(4-chlorophenyl)-7-fluoro-5-[(1R)-1-(4-fluorooxan-4-yl)-1-hydroxypropyl]-1-methoxy-3-oxo-2,3-dihydro-1H-isoindol-2-yl]methyl}-6-methylpyridine-2-carboxylic acid] as the compound, how does the inhibition at 10 µM [1] read?
Its inhibition at 10 µM is 8%.

For CCC(O)(CN1CCNCC1)c1cc(F)c2c(c1)C(=O)N(Cc1ncc(Cl)cn1)[C@@]2(O[C@H]1CCOC1)c1ccc(Cl)cc1 (single isomer, unassigned) [Example 524], which inhibition at 10 µM [1] is on record?
The inhibition at 10 µM was 35%.

CCC(O)(CN1CC[C@@H](O)C1)c1cc(F)c2c(c1)C(=O)N(Cc1ncc(Cl)cn1)[C@@]2(O[C@H]1CCOC1)c1ccc(Cl)cc1 (single isomer, unassigned) [Example 526] was tested. Which inhibition at 10 µM [1] did it give?
The inhibition at 10 µM was 9%.

CCC(O)(CN(C)C)c1cc(F)c2c(c1)C(=O)N(Cc1ncc(Cl)cn1)[C@@]2(O[C@H]1CCOC1)c1ccc(Cl)cc1 (stereo partly drawn) [Example 528, (3R)-3-(4-chlorophenyl)-2-[(5-chloropyrimidin-2-yl)methyl]-6-[1-(dimethylamino)-2-hydroxybutan-2-yl]-4-fluoro-3-[(3S)-oxolan-3-yloxy]-2,3-dihydro-1H-isoindol-1-one] was tested. Which inhibition at 10 µM [1] did it give?
The inhibition at 10 µM was 10%.

How did the inhibition at 10 µM [1] turn out when CCC(O)(c1cc(F)c2c(c1)C(=O)N(Cc1ncc(Cl)cn1)[C@@]2(OC)c1ccc(Cl)cc1)C1CCNCC1 (stereo partly drawn) [Example 450, (3R)-3-(4-chlorophenyl)-2-[(5-chloropyrimidin-2-yl)methyl]-4-fluoro-6-[1-hydroxy-1-(piperidin-4-yl)propyl]-3-methoxy-2,3-dihydro-1H-isoindol-1-one] was run?
The inhibition at 10 µM was 15%.

Which inhibition at 10 µM [1] does the source give for CCC(O)(c1cc(F)c2c(c1)C(=O)N(Cc1ccc(C#N)cn1)[C@@]2(O[C@H]1CCOC1)c1ccc(Cl)cc1)C1(F)CCOCC1 (stereo partly drawn) [Example 445, 6-{[(1R)-1-(4-chlorophenyl)-7-fluoro-5-[1-(4-fluorooxan-4-yl)-1-hydroxypropyl]-3-oxo-1-[(3S)-oxolan-3-yloxy]-2,3-dihydro-1H-isoindol-2-yl]methyl}pyridine-3-carbonitrile] here?
The inhibition at 10 µM was 16%.

CCC(O)(c1cc(F)c2c(c1)C(=O)N(Cc1ccc(C#N)cn1)[C@@]2(O[C@@H]1CCOC1)c1ccc(Cl)cc1)c1cn(C)cn1 (stereo partly drawn) [Example 426, 6-{[(1R)-1-(4-chlorophenyl)-7-fluoro-5-[1-hydroxy-1-(1-methyl-1H-imidazol-4-yl)propyl]-3-oxo-1-[(3R)-oxolan-3-yloxy]-2,3-dihydro-1H-isoindol-2-yl]methyl}pyridine-3-carbonitrile] was tested. Which inhibition at 10 µM [1] did it give?
The inhibition at 10 µM was 4%.

How did the inhibition at 10 µM [1] turn out when CO[C@]1(c2ccc(Cl)cc2)c2c(F)cc(C(C)(O)C3CCN(CC(=O)O)CC3)cc2C(=O)N1Cc1ccc(Cl)cn1 (single isomer, unassigned) [Example 459] was run?
Its inhibition at 10 µM is 7%.

For O=C1c2cc(C(O)C3CCS(=O)(=O)CC3)cc(F)c2[C@](OCC2(O)CC2)(c2ccc(Cl)cc2)N1Cc1ncc(Cl)cn1 (stereo partly drawn) [Example 399, 4-{[(1R)-1-(4-chlorophenyl)-2-[(5-chloropyrimidin-2-yl)methyl]-7-fluoro-1-[(1-hydroxycyclopropyl)methoxy]-3-oxo-2,3-dihydro-1H-isoindol-5-yl](hydroxy)methyl}-1λ6-thiane-1,1-dione], which inhibition at 10 µM [1] is on record?
Its inhibition at 10 µM is 2%.

How did the IC50 [1] turn out when CN1CCC(C(C)(O)c2cc(F)c3c(c2)C(=O)N(Cc2ccc(Cl)cn2)[C@@]3(OCC2(C(N)=O)CC2)c2ccc(Cl)cc2)CC1 (single isomer, unassigned) [Example 306] was run?
Its IC50 is 13 µM.

With C=CC(O)(c1cc(F)c2c(c1)C(=O)N(Cc1ccc(C#N)cn1)[C@@]2(O[C@H]1C[C@@H](O)C1)c1ccc(Cl)cc1)c1cnn(C)c1 (single isomer, unassigned) [Example 361] as the compound, how does the inhibition at 10 µM [1] read?
The inhibition at 10 µM was 8%.

Which IC50 [1] does the source give for CO[C@]1(c2ccc(Cl)cc2)c2c(F)cc(C(C)(O)C3CCN(C)CC3)cc2C(=O)N1Cc1ccc(Cl)cn1 (stereo partly drawn) [Example 304, (3R)-3-(4-chlorophenyl)-2-[(5-chloropyridin-2-yl)methyl]-4-fluoro-6-[1-hydroxy-1-(1-methylpiperidin-4-yl)ethyl]-3-methoxy-2,3-dihydro-1H-isoindol-1-one] here?
Its IC50 is 9 µM.

For Cn1cnc(C(O)(c2cc(F)c3c(c2)C(=O)N(Cc2ccc(C#N)cn2)[C@@]3(O[C@H]2CCOC2)c2ccc(Cl)cc2)C2CC2)c1 (stereo partly drawn) [Example 433, 6-{[(1R)-1-(4-chlorophenyl)-5-[cyclopropyl(hydroxy)(1-methyl-1H-imidazol-4-yl)methyl]-7-fluoro-3-oxo-1-[(3S)-oxolan-3-yloxy]-2,3-dihydro-1H-isoindol-2-yl]methyl}pyridine-3-carbonitrile], which inhibition at 30 µM ([1]; read-out: SN40R2 % inhibition at 30) is on record?
The inhibition at 30 µM was 20%.

How did the IC50 [1] turn out when CO[C@]1(c2ccc(Cl)cc2)c2c(F)cc(C(C)(O)C3CCN(c4ncccn4)CC3)cc2C(=O)N1Cc1ccc(Cl)cn1 (single isomer, unassigned) [Example 286] was run?
Its IC50 is 12 µM.

Which inhibition at 10 µM [1] does the source give for [2H]C([2H])(c1ncc(Cl)cn1)N1C(=O)c2cc(C(C)(O)C3(F)CCOCC3)cc(F)c2[C@]1(O[C@H]1CCOC1)c1ccc(Cl)cc1 (stereo partly drawn) [Example 516, (3R)-3-(4-chlorophenyl)-2-[(5-chloropyrimidin-2-yl)dideuteromethyl]-4-fluoro-6-[1-(4-fluorooxan-4-yl)-1-hydroxyethyl]-3-[(3S)-oxolan-3-yloxy]-2,3-dihydro-1H-isoindol-1-one] here?
The inhibition at 10 µM was 4%.

C=C(CO)CO[C@]1(c2ccc(Cl)cc2)c2c(F)cc(C(O)(CC)c3cn(C)cn3)cc2C(=O)N1Cc1ccc(C#N)cn1 (stereo partly drawn) [Example 466, 6-{[(1R)-1-(4-chlorophenyl)-7-fluoro-5-[1-hydroxy-1-(1-methyl-1H-imidazol-4-yl)propyl]-1-(3-hydroxy-2-methylidenepropoxy)-3-oxo-2,3-dihydro-1H-isoindol-2-yl]methyl}pyridine-3-carbonitrile] was tested. Which inhibition at 10 µM [1] did it give?
The inhibition at 10 µM was 4%.

Source: US11236047B2 (ASTEX THERAPEUTICS LIMITED, priority 2017, dated 2022)
